Measured values as given in patent US11583529B2, “Treatment of inflammatory disorders” (Aldeyra Therapeutics, Inc., priority 2017, dated 2023).

Columns and labels:
[1] = system: rat model of endotoxin induced uveitis; assay: Rat model of endotoxin-induced uveitis (EIU), topical or intravitreal treatment; format: in vivo, female Lewis rats
Experimental: An in vivo study was conducted to assess the efficacy of intravitreal administration of compound I-22 in a rat model of endotoxin induced uveitis, one of the most appropriate models for the study of NIU (Smith et al., 1998) (Toxikon Study 16-04078-N1). Ocular inflammation was induced in female Lewis rats (n=10/group) by a single foot pad injection of LPS (100 μL) (Herbort et al., 1988, Graefe's Arch Clin Exp Ophthalmol. 226:553-558). Compound I-22 (5 mg/mL) was administered intravitreally into each eye (25 μg/eye), or topically to both eyes at 1, 3, 7, 10, and 17 hours post-LPS injection, within one hour of LPS administration. Balanced salt solution (BSS) served as a vehicle control. Retinal exams were performed prior to study start and six and 24 hours following LPS administration and scored using a Combined Draize and McDonald Shadduck scoring system, based on assessments of: retinal vasculopathy and retinal hemorrhage, exudate, and detachment.
Endotoxin-induced uveitis was created by a single injection of lipopolysaccharide (LPS; 100 μL) into one hind footpad. Ten (10) female Lewis rats per group received control (balanced salt solution, BSS) or test article (compound I-22) topically to both eyes at 1, 3, 7, 10, and 17 hours post-LPS injection. At each dosing time point, two drops (5 μL each, separated by approximately two minutes, for a total of 10 μL/eye/dose) were instilled into each eye of the animals. Ten female Lewis rats per group received control (BSS) or compound I-22 by a single intravitreal injection (IVT) in each eye at one hour post-LPS injection. Each eye received 5 μL of vehicle or test article.
Animals were anesthetized with isoflurane 1-3.5% for ophthalmic examinations. Both eyes of each animal were evaluated pre-dose using slit-lamp biomicroscopy, and an indirect ophthalmoscope or a surgical microscope, according to the Combined Draize and McDonald-Shadduck Scoring System, and the Ocular Posterior Segment Scoring Scale. All pupils were dilated with 1% tropicamide ophthalmic solution before ocular examination. Only rats showing no signs of eye irritation, ocular defects or preexisting corneal injury were used in the study.
Ophthalmic examinations were performed on both eyes of each animal approximately six and 24 hours following LPS administration, using slit-lamp biomicroscopy and a surgical microscope or via indirect ophthalmoscopy. Pupils were dilated with 1% Tropicamide Ophthalmic Solution before ophthalmic examinations.
Quantitative, continuous data from this study were analyzed using one-way ANOVA. Alternative or additional statistical methods were used as necessary.
In the same study, the efficacy of compound 1-5 was compared to that of compound 1-22. Compound 1-5 was topically administered topically to the eye at hours 1, 3, 7, 10, and 17, after LPS induction, or by a single intravitreal (IVT) injection one hour after LPS induction (n=10 per group), as was compound I-22. Ocular exams were performed 6 and 24 hours after LPS injection. Anterior segments were scored using a combined Draize and McDonald-Shadduck scoring system, and posterior segments were scored using 0 to 1 (vitreous, optic disc, retinal vasculature) and 0 to 4 (retinal and choroidal hemorrhage, exudation, and detachment) scales. Statistical significance from vehicle control was determined by ANOVA, followed by Tukey's post hoc test.

Dry Eye Disease (DED) = assay: Phase 2b clinical study of I-5 Ophthalmic Solution (0.25% and 0.1%) vs vehicle in subjects with dry eye disease; format: in vivo, human; details: for Reason for Study Withdrawal: Adverse Events / Study Completion: Discontinued: N = 100
Source text: Objectives: • To evaluate the efficacy of I-5 Ophthalmic Solutions (0.25% and 0.1%) on baseline to weeks 2, 4, 8, and 12 change scores for sign and symptom endpoints of dry eye disease. • To evaluate effect sizes for efficacy endpoints of I-5 Ophthalmic Solutions (0.25% and 0.1%) vs vehicle for the treatment of the signs and symptoms of dry eye disease to confirm the endpoint selection and sample size for Phase 3 studies. • To evaluate the safety and tolerability of I-5 Ophthalmic Solutions (0.25% and 0.1%) to vehicle for the treatment of the signs and symptoms of dry eye disease.
Treatment: During the 12-week (84±3 days) treatment period, I-5 Ophthalmic Solution at concentrations of 0.1%, 0.25%, or vehicle ophthalmic solution was administered QID by bilateral topical ocular dosing. Subjects were randomized to one of three treatment groups (1:1:1) to receive study drug after the Post-CAE® assessments at Visit 2.
Summary of Visit Schedule: Six visits over the course of approximately 14 weeks • Visit 1=Day −14±2, CAE® Screening • Visit 2=Day 1, CAE® Confirmation/Baseline • Visit 3=Day 15±2, 2-Week Follow-Up • Visit 4=Day 29±2, 4-Week Follow-Up • Visit 5=Day 57±3, 8-Week Follow-Up • Visit 6=Day 85±3, 12-Week CAE® Follow-Up & Study Exit
Note: a subject could not have an Ocular Discomfort score of 4 at time=0); • 12 Had at least one eye, the same eye, satisfy all criteria for 6, 7, 8, 9, 10, and 11 above.
Safety Measures: • Visual acuity • Slit-lamp evaluation • Adverse event query • Intraocular Pressure (IOP) • Dilated fundoscopy
Efficacy Analysis • Evaluated baseline to weeks 2, 4, 8 and 12 change scores with I-5 on DED sign and symptom endpoints (both pre-CAE and CAE endpoints). Each endpoint was analyzed at a two-sided alpha level of 0.05, and the overall type I error was not controlled for in this investigative study. • Evaluated effect size of baseline to weeks 2, 4, 8 and 12 change scores of I-5 vs vehicle on DED sign and symptom endpoints (both pre-CAE and CAE endpoints) to confirm the endpoint selection for primary outcome parameters and sample size for Phase 3 studies with I-5. • Sub-group analyses on effect size of baseline to weeks 2, 4, 8 and 12 change scores of I-5 vs vehicle on DED sign and symptom endpoints (both pre-CAE and CAE endpoints) [Subgroups were prospectively detailed in the Statistical Analysis Plan (SAP)].

[2] = system: dextran sulfate sodium (DSS)-induced acute ulcerative colitis (UC); assay: 7-Day DSS-induced acute ulcerative colitis model; format: in vivo, female Swiss Webster mice; details: vs PO vehicle
[3] = intravitreal administration, vs vehicles
[4] = 0.25% group, majority (>50-100%) of effect vs vehicle at first study endpoint (Week 2 or 4)
[5] = 200 mg/kg PO BID, Days −3 through 6

## CC(C)(O)c1nc2ccc(Cl)cc2cc1N [Compound I-5]
[1]; IVT, vs vehicle
  ocular exam scores: significantly improved
[1]; [3]
  Total ocular inflammation: lower
  anterior chamber inflammation: lower
  retina-choroid inflammation: lower
[1]; overall
  signs of inflammation in the rat EIU model: reduced
[1]; overall, I-22 compared with I-5
  response in the EIU model: positive response
[1]; topical (TO), 6 hours and 24 hours, vs vehicle
  ocular exam scores: significantly improved
[1]; topical (TO), vs vehicle
  Total ocular inflammation score: lower
  anterior chamber inflammation score: lower
  retina-choroid inflammation score: lower
Dry Eye Disease (DED); 0.1% QID
  Reason for Study Withdrawal: Adverse Events: 2 (2.0%)
  Study Completion: Discontinued: 3 (3.0%)
Dry Eye Disease (DED); 0.1%, clearest with signs, especially ocular staining
  effects at later time points: Matched Higher Dose Effects at Later Time Points
Dry Eye Disease (DED); 0.25% QID
  Reason for Study Withdrawal: Adverse Events: 10 (10.0%)
  Study Completion: Discontinued: 12 (12.0%)
Dry Eye Disease (DED); [4]
  early onset of effect, sign endpoints (Lissamine green total score, fluorescein total score, tear osmolarity positive; TFBUT negative): Positive early onset for 3 out of 4 sign endpoints
  early onset of effect, symptom endpoints (ODS, OD4SQ, OSDI positive; SANDE negative): Positive early onset for 3 out of 4 symptom endpoints
Dry Eye Disease (DED); ITT, observed data only
  Fluorescein Staining: Central (0-4); Dose Trend?: ✓
  Fluorescein Staining: Central (0-4); Drug Trend?: ✓
  Fluorescein Staining: Conjunctival Sum Score (Nasal and Temporal) (0-8; Σ 2×); Dose Trend?: ✓
  Fluorescein Staining: Conjunctival Sum Score (Nasal and Temporal) (0-8; Σ 2×); Drug Trend?: ✓
  Fluorescein Staining: Corneal Sum Score (Inferior, Superior, and Central) (0-12; Σ 3×); Drug Trend?: ✓
  Fluorescein Staining: Inferior (0-4); Drug Trend?: ✓
  Fluorescein Staining: Nasal (0-4); Dose Trend?: ✓
  Fluorescein Staining: Nasal (0-4); Drug Trend?: ✓
  Fluorescein Staining: Temporal (0-4); Dose Trend?: ✓
  Fluorescein Staining: Temporal (0-4); Drug Trend?: ✓
  Fluorescein Staining: Total Score (all five regions) (0-20; Σ 5×); Drug Trend?: ✓
  OD & 4-Symptom Questionnaire: Burning (0-5); Drug Trend?: ✓
  OD & 4-Symptom Questionnaire: Dryness (0-5); Dose Trend?: ✓
  OD & 4-Symptom Questionnaire: Dryness (0-5); Drug Trend?: ✓
  OD & 4-Symptom Questionnaire: Grittiness (0-5); Dose Trend?: ✓
  OD & 4-Symptom Questionnaire: Grittiness (0-5); Drug Trend?: ✓
  OD & 4-Symptom Questionnaire: Overall Ocular Discomfort (0-5); Dose Trend?: ✓
  OD & 4-Symptom Questionnaire: Overall Ocular Discomfort (0-5); Drug Trend?: ✓
  OD & 4-Symptom Questionnaire: Stinging (0-5); Dose Trend?: ✓
  OD & 4-Symptom Questionnaire: Stinging (0-5); Drug Trend?: ✓
  Ocular Discomfort Scale (0-4); Dose Trend?: ✓
  Ocular Discomfort Scale (0-4); Drug Trend?: ✓
  Ocular Surface Disease Index (OSDI) (0-100); Dose Trend?: ✓
  Ocular Surface Disease Index (OSDI) (0-100); Drug Trend?: ✓
  Osmolarity (mOsm/L); Drug Trend?: ✓
  SANDE Questionnaire Frequency (0-100 mm); Drug Trend?: ✓
  SANDE Questionnaire Severity (0-100 mm); Dose Trend?: ✓
  SANDE Questionnaire Severity (0-100 mm); Drug Trend?: ✓
  Schirmer’s Test (mm); Dose Trend?: ✓
  Schirmer’s Test (mm); Drug Trend?: ✓
  Tear Film Break-up Time (sec); Dose Trend?: ✓
  Usamine Green Staining: Central (0-4); Dose Trend?: ✓
  Usamine Green Staining: Central (0-4); Drug Trend?: ✓
  Usamine Green Staining: Conjunctival Sum Score (Nasal and Temporal) (0-8; Σ 2×); Dose Trend?: ✓
  Usamine Green Staining: Conjunctival Sum Score (Nasal and Temporal) (0-8; Σ 2×); Drug Trend?: ✓
  Usamine Green Staining: Corneal Sum Score (Inferior, Superior, and Central) (0-12; Σ 3×); Dose Trend?: ✓
  Usamine Green Staining: Corneal Sum Score (Inferior, Superior, and Central) (0-12; Σ 3×); Drug Trend?: ✓
  Usamine Green Staining: Inferior (0-4); Dose Trend?: ✓
  Usamine Green Staining: Inferior (0-4); Drug Trend?: ✓
  Usamine Green Staining: Nasal (0-4); Dose Trend?: ✓
  Usamine Green Staining: Nasal (0-4); Drug Trend?: ✓
  Usamine Green Staining: Superior (0-4); Dose Trend?: ✓
  Usamine Green Staining: Temporal (0-4); Dose Trend?: ✓
  Usamine Green Staining: Temporal (0-4); Drug Trend?: ✓
  Usamine Green Staining: Total Score (all five regions) (0-20; Σ 5×); Dose Trend?: ✓
  Usamine Green Staining: Total Score (all five regions) (0-20; Σ 5×); Drug Trend?: ✓
Dry Eye Disease (DED); between 0.1% and 0.25% dose strengths
  Dose Response: Demonstrated
[2]; 200 mg/kg PO BID (Groups 5, 6, 7, 8, 9, and 10)
  Body weights: did not differ significantly
[2]; [5]
  proximal colon edema, reduction: 63%
  proximal colon erosion, reduction: 73%
